# Source: patent publication EP1321467A2, “High affinity inhibitors for target validation and uses thereof” (Princeton University, priority 1999, dated 2000)
# Entries after “also recorded” stand apart in the source; their conditions may differ. Where two headings read alike, the source gives them in different places.
# What was measured:
# [1] = target: T1, I338G v-Src (Rous sarcoma virus subgroup A, UniProt P00524, DEL77-225/I338G); experiment: biochemical; type: biochemical
# T1 construct: catalytic domain of the target kinase, I338G v-Src, which was expressed in bacteria and purified as a glutathione-S-transferase (GST) fusion protein; made in house; host or cells: E. coli DH5a, pGEX-KT
# [2] = system: B cell receptor (BCR) mediated phosphorylation cascade; experiment: Murine B cell assay, phosphotyrosine blot; type: cell-based; set-up: dose or concentration left out as unconfirmed; settings: 30 minutes, anti-IgM stimulation
# Protocol: Murine B Cell Assay: Splenic lymphocytes were isolated from 6-20 week old Balb/c or C57/B6 mice. The cells were washed out of the spleen into RPMI media containing 1 mg/mL DNase in and the red blood cells were lysed in 17 mM tris-ammonium chloride, pH 7.2, Approximately 4x10^6 cells were incubated at 37°C for 30 minutes with […] of 3g or 2 in 1.1% DMSO. B cell stimulation was initiated by the addition of 2 mg of goat anti-mouse IgM (Jackson Immuno Research, cat# 115-005-075) and subsequent incubation for 5 minutes at 37(C. The cells were isolated by centrifugation (13,000 rpm, 2 min) and lysed (lysis buffer: 1% Triton X-100, 50 mM tris pH 7.4, 2 mM EDTA, 150 mM NaCl, […] PMSF, 2 mM sodium orthovanadate, 10 mg/mL leupeptin, 10 mg/mL apoprotin). The cellular debris was then pelleted at 13,000 rpm for 15 min. Cellular proteins were separated by 10% polyacrylamide gel electrophoresis and transferred to a nitrocellulose membrane by Western blotting. Phosphotyrosine containing proteins were visualized by immunoblotting with anti-phosphotyrosine antibody (Upstate Biotechnology, Inc.).
# [3] = system: Jurkat cells; experiment: Tyrosine phosphorylation in pervanadate treated Jurkat cells; type: cell-based, human; settings: 500nM 6a, 30 min, then 0.5 mM pervanadate
# [4] = system: WT v-Src transformed NIH3T3 fibroblasts; experiment: Microscopy of cell morphology and polymerized actin; type: cell-based, murine; settings: 250 nM 6a, 16 hours
# [5] = system: I338G v-Src; experiment: biochemical; type: biochemical; settings: for increase in affinity over previously optimized inhibitors of wild type kinases: versus PP1 on Fyn
# [6] = target: T2, WT v-Src (Rous sarcoma virus subgroup A, UniProt P00524, DEL77-225); experiment: biochemical; type: biochemical; set-up: in vitro inhibition of WT v-Src / inhibition of WT v-Src: dose or concentration left out as unconfirmed
# T2 construct: glutathione-S-transferase fusion proteins of wild type v-Src catalytic domain, I338G v-Src SH1, and WT Fyn into the pGEX-KT plasmid; GST (N); made in house; host or cells: E. coli DH5a, pGEX-KT
# [7] = system: WT v-Src transformed NIH3T3 cells; experiment: Inhibition of v-Src in NIH3T3 fibroblasts, phosphotyrosine blot; type: cell-based, murine
# [8] = system: I338G v-Src transformed NIH3T3 cells; experiment: as above; type: cell-based, murine
# [9] = system: I338G v-Src transformed NIH3T3 fibroblasts; experiment: Microscopy of cell morphology and polymerized actin; type: cell-based, murine
# [10] = system: wild-type protein tyrosine kinase; experiment: Screening of nucleotide analogs in murine lymphocyte lysate, anti-phosphotyrosine immunoblot; type: biochemical; settings: 100 uM nucleotide triphosphate, 37°C, 5 min
# [11] = target: T3, PKA (Homo sapiens, UniProt P17612); experiment: In vitro kinase inhibition assay; type: biochemical; settings: concentrations up to 300 mM
# T3 construct: purchased Pierce
# From the text: (§1) PKA was purchased (Pierce) and used without further purification.
# [12] = target: T4, T339G Fyn (Homo sapiens, UniProt P06241, T342G); experiment: In vitro kinase inhibition assay; type: biochemical
# T4 construct: GST (N); made in house; host or cells: E. coli DH5a, pGEX-KT
# From the text: as §1
# [13] = target: T5, PKCd (Homo sapiens, UniProt Q05655); experiment: In vitro kinase inhibition assay; type: biochemical; settings: concentrations up to 300 mM
# T5 construct: 6-His; made in house
# [14] = target: T6, WT Fyn (Homo sapiens, UniProt P06241); experiment: In vitro kinase inhibition assay; type: biochemical; set-up: in vitro inhibition of Fyn: dose or concentration left out as unconfirmed; settings: for IC50: Table 3
# T6 construct: GST (N); made in house; host or cells: E. coli DH5a, pGEX-KT
# [15] = system: S. cerevisiae expressing either wild-type Fus3, Fus3-asl, or no Fus3; experiment: Non-selective cytotoxicity control, plating of mating cultures on YPD; settings: any of the three strains
# [16] = system: wild-type cells; experiment: Yeast growth; type: cell-based, Saccharomyces cerevisiae; settings: concentrations that ablate Cdc28-as1 growth
# [17] = target: Cdc28-as1·MBP-C1b2 (Saccharomyces cerevisiae, UniProt P00546, F88G); experiment: 1-NM-PP1 IC50, Histone H1 phosphorylation; type: biochemical; set-up: His6 (C); made in house; host or cells: Sf9 insect cells, baculovirus, co-infected with Cak1-HA3 (Cdc28-as1-His6); bacteria (MBP-Clb2); settings: IC50, text b289
# Protocol: (§2) Purification of Cdc28-His6, Cdc28-as1-His6, MBP-Clb2: Lysate was prepared from insect cells co-infected with baculoviruses encoding Cdc28-His6 or Cdc28-as1-His6 and Cak1-HA3 (151). Cdc28-His6 and Cdc28-as1-His6 were purified by metal affinity chromatography as described (152), followed by […]. MBP-Clb2 was purified from lysates of bacteria expressing MBP-Clb2 (a gift of R. Deshaies) on an amylose column (NEBL), followed by anion-exchange chromatography (Pharmacia Q Sepharose Fast Flow).
# (§3) Phosphate incorporation was determined at each inhibitor concentration by scintillation counting.
# [18] = system: panel of wild-type protein kinases; experiment: In vitro inhibition, panel of wild-type protein kinases; type: biochemical
# [19] = system: glycine mutants; experiment: In vitro inhibition, all glycine mutant kinases of the panel; type: biochemical; settings: read-out: IC 50's for all of the glycine mutants
# [20] = system: wild-type Fus3 expressing cells; experiment: Yeast mating assay for Fus3 function; type: cell-based, Saccharomyces cerevisiae; settings: all concentrations up to 50 µM
# [21] = system: fus3-as1 strain; experiment: Yeast mating assay for Fus3 function; type: cell-based, Saccharomyces cerevisiae; settings: 50 µM
# [22] = system: cdc28-as1 strain; experiment: Yeast growth; type: cell-based, Saccharomyces cerevisiae; settings: concentrations without effect on wild-type strains
# [23] = target: T7, F80G CDK2 (Homo sapiens, UniProt P24941, F80G); experiment: In vitro inhibition of phosphorylation of an exogenous substrate, kinase panel; type: biochemical
# T7 construct: made in house
# [24] = target: T8, Cdc28·MBP-C1b2 (Saccharomyces cerevisiae, UniProt P00546); experiment: 1-NM-PP1 IC50, Histone H1 phosphorylation; type: biochemical; settings: text b289; read-out: IC50
# T8 construct: His6 (C); made in house; host or cells: Sf9 insect cells, baculovirus, co-infected with Cak1-HA3 (Cdc28-His6); bacteria (MBP-Clb2)
# Protocol: as §2, §3
# [25] = target: T9, F89G CAMK IIα (Homo sapiens, UniProt Q9UQM7, F89G); experiment: In vitro inhibition of phosphorylation of an exogenous substrate, kinase panel; type: biochemical
# T9 construct: made in house
# T9 sequence (Q9UQM7 whole entry F89G): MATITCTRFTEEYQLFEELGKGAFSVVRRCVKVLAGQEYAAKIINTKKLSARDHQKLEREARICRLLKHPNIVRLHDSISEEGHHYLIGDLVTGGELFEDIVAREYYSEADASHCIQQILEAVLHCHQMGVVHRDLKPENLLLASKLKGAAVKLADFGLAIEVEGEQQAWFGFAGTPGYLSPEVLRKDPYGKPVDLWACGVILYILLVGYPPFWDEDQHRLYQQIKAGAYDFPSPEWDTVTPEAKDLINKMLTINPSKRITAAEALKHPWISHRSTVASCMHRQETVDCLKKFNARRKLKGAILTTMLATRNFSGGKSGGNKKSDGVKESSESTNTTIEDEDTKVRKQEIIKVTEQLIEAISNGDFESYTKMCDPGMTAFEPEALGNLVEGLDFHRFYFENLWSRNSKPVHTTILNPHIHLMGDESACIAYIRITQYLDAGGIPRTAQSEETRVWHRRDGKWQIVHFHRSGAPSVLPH
# T6 sequence (P06241 1-534 isoform P06241-2): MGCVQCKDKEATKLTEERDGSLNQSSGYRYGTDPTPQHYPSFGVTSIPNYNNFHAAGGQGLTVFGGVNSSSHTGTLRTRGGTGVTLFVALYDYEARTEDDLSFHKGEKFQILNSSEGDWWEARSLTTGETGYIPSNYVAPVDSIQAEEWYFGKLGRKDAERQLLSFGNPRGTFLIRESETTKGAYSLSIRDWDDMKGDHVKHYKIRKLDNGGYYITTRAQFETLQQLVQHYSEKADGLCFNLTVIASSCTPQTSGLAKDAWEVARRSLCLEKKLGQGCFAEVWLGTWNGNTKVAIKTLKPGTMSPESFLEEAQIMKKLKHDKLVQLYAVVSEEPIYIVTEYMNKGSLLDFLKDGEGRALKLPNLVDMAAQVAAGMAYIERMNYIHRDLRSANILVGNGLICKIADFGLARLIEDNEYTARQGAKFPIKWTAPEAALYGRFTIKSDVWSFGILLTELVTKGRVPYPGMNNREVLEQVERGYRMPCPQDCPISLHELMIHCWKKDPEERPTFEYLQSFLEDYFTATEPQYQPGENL
# Chain of Cdc28-as1·MBP-C1b2 (P00546 whole entry F88G): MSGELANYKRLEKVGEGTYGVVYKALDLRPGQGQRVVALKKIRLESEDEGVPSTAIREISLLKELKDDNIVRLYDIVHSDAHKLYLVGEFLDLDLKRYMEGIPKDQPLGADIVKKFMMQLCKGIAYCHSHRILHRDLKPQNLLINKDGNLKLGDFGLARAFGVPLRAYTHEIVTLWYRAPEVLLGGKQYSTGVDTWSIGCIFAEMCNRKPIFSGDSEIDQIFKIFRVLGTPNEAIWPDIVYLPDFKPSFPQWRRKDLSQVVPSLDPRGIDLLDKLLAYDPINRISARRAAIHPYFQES
# Chain of Cdc28-as1·MBP-C1b2 (P24869 whole entry, further chain): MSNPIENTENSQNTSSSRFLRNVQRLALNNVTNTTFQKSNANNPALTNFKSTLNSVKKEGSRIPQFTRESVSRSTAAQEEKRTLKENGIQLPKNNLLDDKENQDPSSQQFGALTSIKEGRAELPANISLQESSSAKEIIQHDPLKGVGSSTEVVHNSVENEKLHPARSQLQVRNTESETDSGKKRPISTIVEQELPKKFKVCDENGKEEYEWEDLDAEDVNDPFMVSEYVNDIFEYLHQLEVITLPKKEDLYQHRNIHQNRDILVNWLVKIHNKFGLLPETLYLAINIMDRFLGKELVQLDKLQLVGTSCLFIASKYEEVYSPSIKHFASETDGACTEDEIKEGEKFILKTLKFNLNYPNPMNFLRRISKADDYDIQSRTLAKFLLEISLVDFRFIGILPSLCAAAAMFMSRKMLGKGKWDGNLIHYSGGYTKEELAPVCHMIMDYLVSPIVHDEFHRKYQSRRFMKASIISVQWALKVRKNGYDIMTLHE
# T5 sequence (Q05655 whole entry, species assumed): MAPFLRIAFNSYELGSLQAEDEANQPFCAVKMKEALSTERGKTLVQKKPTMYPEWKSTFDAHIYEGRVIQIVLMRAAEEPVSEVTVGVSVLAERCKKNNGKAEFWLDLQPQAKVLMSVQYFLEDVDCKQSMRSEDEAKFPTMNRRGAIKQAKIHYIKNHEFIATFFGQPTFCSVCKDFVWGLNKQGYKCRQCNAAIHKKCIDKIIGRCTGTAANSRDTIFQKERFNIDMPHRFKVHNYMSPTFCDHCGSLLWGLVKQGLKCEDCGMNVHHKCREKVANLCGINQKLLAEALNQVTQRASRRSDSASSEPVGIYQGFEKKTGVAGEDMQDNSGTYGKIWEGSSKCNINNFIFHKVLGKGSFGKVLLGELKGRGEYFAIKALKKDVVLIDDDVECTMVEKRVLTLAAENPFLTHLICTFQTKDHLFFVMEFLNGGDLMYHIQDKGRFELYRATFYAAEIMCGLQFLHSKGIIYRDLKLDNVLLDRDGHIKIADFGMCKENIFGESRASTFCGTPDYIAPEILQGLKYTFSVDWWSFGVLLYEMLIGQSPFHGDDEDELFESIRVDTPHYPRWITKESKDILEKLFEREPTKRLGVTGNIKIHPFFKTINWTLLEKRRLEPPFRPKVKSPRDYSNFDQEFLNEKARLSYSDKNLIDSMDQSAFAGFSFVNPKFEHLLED
# T8 sequence (P00546 whole entry): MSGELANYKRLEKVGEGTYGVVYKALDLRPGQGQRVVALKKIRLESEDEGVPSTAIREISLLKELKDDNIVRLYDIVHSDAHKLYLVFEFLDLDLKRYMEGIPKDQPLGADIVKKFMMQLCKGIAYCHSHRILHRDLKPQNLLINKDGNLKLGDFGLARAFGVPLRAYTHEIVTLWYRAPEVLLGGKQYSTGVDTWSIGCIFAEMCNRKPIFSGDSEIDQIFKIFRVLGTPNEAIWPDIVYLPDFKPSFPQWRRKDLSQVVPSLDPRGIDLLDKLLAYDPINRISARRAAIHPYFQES
# T8 sequence (P24869 whole entry partner): as the sequence (P24869 whole entry, further chain) above
# T4 sequence (P06241 1-534 isoform P06241-2 T339G): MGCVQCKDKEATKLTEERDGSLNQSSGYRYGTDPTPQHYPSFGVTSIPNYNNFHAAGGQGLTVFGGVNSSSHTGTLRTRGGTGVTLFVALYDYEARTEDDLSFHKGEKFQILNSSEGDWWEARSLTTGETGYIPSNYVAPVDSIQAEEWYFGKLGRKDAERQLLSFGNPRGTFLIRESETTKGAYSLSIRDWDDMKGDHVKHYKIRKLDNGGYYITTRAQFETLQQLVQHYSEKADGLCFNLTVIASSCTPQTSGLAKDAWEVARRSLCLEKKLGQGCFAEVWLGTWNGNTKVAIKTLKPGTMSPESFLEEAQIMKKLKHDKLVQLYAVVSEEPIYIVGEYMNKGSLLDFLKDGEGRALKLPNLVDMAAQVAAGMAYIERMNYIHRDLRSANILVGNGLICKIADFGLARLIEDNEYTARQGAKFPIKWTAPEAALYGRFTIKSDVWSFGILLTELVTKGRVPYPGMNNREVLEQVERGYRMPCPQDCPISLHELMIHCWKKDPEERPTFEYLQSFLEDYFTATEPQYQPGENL
smiles,measurement,setting,value
"CC(C)(C)n1nc(-c2ccccc2)c2c(N)ncnc21 [2 (Figure 14), 4-Amino-1-tert-butyl-3-phenylpyrazolo [3,4-d] pyrimidine]",IC50,[1],430 nM
same,phosphotyrosine pattern of B cell stimulation,[2],significant reduction in tyrosine phosphorylation
"CC(C)(C)n1nc(-c2cccc3ccccc23)c2c(N)ncnc21 [4-amino-1-(tert-butyl)-3-(1'-naphthyl)pyrazolo[3,4-d]pyrimidine]",tyrosine phosphorylation,[3],no detectable decrease in phosphorylation
same,actin fibers and morphology,[4],indistinguishable from untreated wild type cells; also recorded: no effect on this non-mutant cell line
same,increase in affinity over previously optimized inhibitors of wild type kinases,[5],20 fold
same,IC50,[1],1.5 nM
same,IC50,[6],1000 nM
same,phosphotyrosine signal,[7]; 500nM 6a,no loss of phosphotyrosine signal
same,tyrosine phosphorylation,"[8]; varying concentrations of 6a, 30 min",strongly diminishes tyrosine phosphorylation in a concentration dependent manner within minutes
same,actin fibers and morphology,"[9]; 250 nM 6a, 16 hours",clear actin fibers and appear indistinguishable from normal NIH3T3 fibroblasts; also recorded: selectively acquire a flattened morphology and selectively regain actin stress
CC(C)(C)n1nc(-c2ccccc2)c2c(N)ncnc21 [Compound 1],level of protein tyrosine phosphorylation,[10],some ability to serve as cellular protein tyrosine kinase substrates
"CC(C)(C)c1ccc(C(=O)Nc2ncnc3c2c(-c2ccccc2)nn3C(C)(C)C)cc1 [Compound 3g, 4-(p-tert-butyl)benzamido-1-tert-butyl-3-phenylpyrazolo[3,4-d]pyrimidine]",inhibition of PKA,[11],not detectably inhibited
same,selectivity for T339G Fyn over WT Fyn,[12],greater than 300 fold
same,inhibits the engineered v-Src more effectively than WT Fyn,[5]; in vitro,over 700 times
same,selectivity for I338G v-Src with respect to wild type v-Src,[5]; in vitro,≥ 1000 fold
same,IC50,[1]; read-out: IC50,430 nM
same,IC50,"[1]; text b249, read-out: IC50",430 nM
same,inhibition of WT v-Src,[6]; limit of solubility,no inhibition
same,phosphotyrosine pattern of B cell stimulation,[2],no effect on the phosphotyrosine pattern of B cell stimulation
same,tyrosine phosphorylation,"[7]; 3g, 12 hours",no loss of tyrosine phosphorylation
same,cellular IC50 relative to the in vitro value,[8],roughly 100 times
same,tyrosine phosphorylation,"[8]; 3g, 12 hours","dramatic diminution in the tyrosine phosphorylation of the putative v-Src substrate, p36; also recorded: blocks p36 phosphorylation in I338G v-Src"
same,IC50,"[8]; Mus musculus, NIH3T3, read-out: IC50 for p36 phosphotyrosine signal",~50000 nM
same,cell morphology and polymerized actin,"[9]; 3g, 48 hours","dramatic changes in cell morphology which are consistent with the reversal of transformation; also recorded: defined polymerized actin strings, strongly resembling the actin formations of non-transformed NIH3T3 fibroblasts; also recorded: selectively acquire a flattened morphology and selectively regain Actin stress fibers"
same,inhibition of PKCd,[13],not detectably inhibited
"CC(C)(C)n1nc(-c2ccc3ccccc3c2)c2c(N)ncnc21 [Compound 6b, 4-amino-1-(tert-butyl)-3-(2'-naphthyl)pyrazolo[3,4-d]pyrimidine]",increase in affinity over previously optimized inhibitors of wild type kinases,[5],20 fold
"CC(C)(C)n1nc(-c2cccc(OCc3ccccc3)c2)c2c(N)ncnc21 [Compound 6d, 4-amino-1-(tert-butyl)-3-(m-benzyloxyphenyl)pyrazolo[3,4-d]pyrimidine]",selectivity for I338G v-Src with respect to wild type Fyn,[5]; in vitro,> 100 fold
"CC(C)(C)n1nc(-c2cccc(OCc3c(Cl)cccc3Cl)c2)c2c(N)ncnc21 [Compound 6e, 4-amino-1-(tert-butyl)-3-(m-(2',6'-dichloro)benzyloxyphenyl) pyrazolo[3,4-d]pyrimidine]",IC50,"[1]; Table 3, read-out: 1338G v-Src",130 nM
same,IC50,"[6]; Table 3, read-out: vSrc",300000 nM
"CC(C)(C)n1nc(Cc2ccc3c(c2)OCO3)c2c(N)ncnc21 [Compound 6f, 4-amino-1-(tert-butyl)-3-piperonylpyrazolo[3,4-d]pyrimidine]",selectivity for I338G v-Src with respect to wild type v-Src,[5]; in vitro,~120 fold
"CC(C)(C)c1ccc(-c2nn(C(C)(C)C)c3ncnc(N)c23)cc1 [Compound 6g, 4-amino-1-(tert-butyl)-3-(p-tert-butylphenyl)pyrazolo[3,4 d]pyrimidine]",IC50,"[1]; Table 3, read-out: 1338G v-Src",99 nM
same,IC50,"[6]; Table 3, read-out: vSrc",65000 nM
"CC(C)(C)n1nc(COc2cccc3ccccc23)c2c(N)ncnc21 [Compound 6i, 4-amino-1(tert-butyl)-3-(1'-naphthoxymethyl)pyrazolo[3,4-d]pyrimidine]",IC50,[14],> 300000 nM
same,selectivity for I338G v-Src with respect to wild type v-Src,[5]; in vitro,> 6500 fold
same,IC50,"[1]; Table 3, read-out: 1338G v-Src",45 nM
same,IC50,"[6]; Table 3, read-out: vSrc",> 300000 nM
"CC(C)(C)n1nc(Cc2ccc3ccccc3c2)c2c(N)ncnc21 [Compound 6j, 4-amino-1-(tert-butyl)-3-(2'-naphthylmethyl)pyrazolo[3,4-d]pyrimidine]",IC50,[14],> 300000 nM
same,IC50,"[1]; Table 3, read-out: 1338G v-Src",20 nM
same,IC50,"[6]; Table 3, read-out: vSrc",> 300000 nM
CC(C)(C)n1nc(Cc2cccc3ccccc23)c2c(N)ncnc21 [Compound 11],cfu/mL on YPD plates,[15],No significant decrease in cfu/mL on YPD plates
same,growth of wild-type strains,[16],no effect on the growth of wild-type strains
same,IC50,[17],3.9 nM
same,concentration below which none of the wild-type kinases tested are inhibited,[18],≥ 1 µM
same,IC50,[19],< 10 nM
same,diploid colonies,[20],0.6-1.1 x 10^5 cfu/ml
same,decrease in mating,[21],85 fold
same,growth of yeast which express Cdc28-as1,[22],completely ablated
same,IC50,[23],5 nM
same,IC50,[24],> 50000 nM
same,IC50,[25],8 nM
OC[C@H]1O[C@@H](n2cnc3c(NOC4CCCC4)ncnc32)[C@H](O)[C@@H]1O [N-6 cyclopentyloxyadenosine],in vitro inhibition of Fyn,[14],no detectable in vitro inhibition
same,in vitro inhibition of WT v-Src,[6],no detectable in vitro inhibition
